Measured values: patent US5583108A, “Vasonatrin peptide and analogs thereof” (Mayo Foundation for Medical Education and Research, priority 1994, dated 1996)
“Also recorded” adds a separate entry of the source.

Legend:
[1] = test system: isolated vessels in congestive heart failure dogs; assay: Preliminary studies: vasorelaxation in isolated vessels of congestive heart failure dogs; set-up: species or system dog
[2] = test system: vessels pre-contracted with endothelin; assay: Relaxation of vessels pre-contracted with endothelin
[3] = test system: isolated normal canine blood vessels; assay: Organ chamber isometric force: relaxation of phenylephrine-contracted vessel rings; set-up: species or system dog; settings: for relaxation: maximal dose (3×10^-6 M); for maximal response, percent change in tension from a contraction to phenylephrine: peptide 3 × 10^-6 M, mean ± SEM
Protocol: (§1) The results obtained are expressed as the means ±SEM. In organ chamber studies, n equals the number of dogs from which rings were taken. Rings with and without endothelium were studied in parallel, and Student's t-test for unpaired observations was used to determine statistical significance among the responses of rings with and without endothelium and between responses of arteries and veins. In rat studies, the data were analyzed using ANOVA for repeated measures followed by Fisher's least significant difference test when appropriate within the group. Data between groups were analyzed by Student's unpaired t-test. Statistical significance was determined at p<0.05.
Rings cut from femoral, saphenous, renal and pulmonary arteries and veins obtained from random source mongrel dogs (anesthetized with 30 mg/kg pentobarbital sodium intravenously) were suspended for the measurement of isometric force in organ chambers filled with aerated (95% O2 and 5% CO2) modified Krebs-Ringer bicarbonate solution (composition in mM: 118.3 NaCl, 4.7 KCl, 2.5 CaCl2, 1.2 MgSO4, 1.2 KH2 PO4, 25.0 NaHCO3, 0.026 calcium sodium EDTA, and 11.1 dextrose; control solution) at 37° C. In one-half rings, the endothelium was removed by gently rubbing the intimal surface with a cotton swab wetted with control solution. Each ring was stretched to the optimal point on its length-tension curve as determined by the tension developed to norepinephrine (3×10^-7 M) at each level of stretch. The presence of endothelium was determined at the beginning of the experiment by a relaxation to acetylcholine (10^-6 M) during a contraction to norepinephrine at optimal length. The maximal tension of each ring was determined by norepinephrine (10^-4 M). To study responses to ANP, CNP and VNP, the rings were contracted with phenylephrine (10^-6 M). These contractions averaged 30-40% of the maximal contraction to norepinephrine. The peptides were added cumulatively once the contraction had stabilized.
The following commercially available drugs were used: acetylcholine chloride (Sigma Chemical, St. Louis, Mo.), human ANP and human CNP (Peninsula Laboratories, Belmont, Calif.), L-norepinephrine bitartrate (Sigma), phenylephrine bitartrate (Sigma). All drugs were dissolved in distilled water immediately prior to study, and the concentrations are reported as the final molar concentration (M) in the organ chamber.

normal rats = assay: Cardiorenal actions after intravenous bolus in anesthetized normal rats; type: in vivo, Wistar rats; settings: for MAP mean arterial pressure / HR heart rate / RAP right atrial pressure / UKV urine potassium excretion / UNaV urine sodium excretion / UV urine volume / UcGMPV urine cGMP volume / PcGMP plasma cGMP: mean ± SEM; for MAP mean arterial pressure: n = 4
Protocol: as §1
Experiments were conducted in accordance with the Animal Welfare Act. Wistar rats and spontaneously hypertensive rats (SHR) (400 g; Harlan Sprague-Dawley, Indianapolis, Ind.) were anesthetized with Inactin (100 mg/kg; intraperitoneal; BYK Gulden, Konstanz, Germany). The body temperature was maintained between 36° and 38° C. by a heating pad. Tracheostomy was performed; however, the animals were not artificially ventilated. Polyethylene catheters (PE-50; Becton Dickinson Co., Parsippany, N.J.) were placed in the left Jugular vein for infusions of saline and drugs, in the right jugular vein to right atrium to monitor right atrial pressure, and in the carotid artery for the collection of blood samples and to monitor mean arterial pressure. A PE-90 catheter was placed in the bladder for urine collection.
Experiments were conducted in three groups in normal rats: ANP group (n=4), CNP group (n=4), and VNP group (n=4). VNP also was studied in SHR rats (n=4). Intravenous infusions of saline solution (0.9% NaCl) were performed (1 ml/100 gm body weight/hr) through the left jugular vein catheter. After completion of surgery, rats were allowed to stabilize for 30 minutes. In each group, a 15-min baseline period followed. After the baseline period, saline solution (0.9% NaCl) was administered in a bolus fashion (0.1 ml) and was followed by a 15-min period. After the saline period, the peptide (ANP, CNP or VNP) was administered in a bolus fashion (0.1 ml) at 5 μg/kg which was followed by a 15-min period. This was followed by a second bolus (0.1 ml) at 50 μg/kg and a 15-min period. After a 30-min washout, a 15-min recovery period followed. During each experimental period, mean arterial pressure (MAP), heart rate (HR), and right atrial pressure (RAP) were measured. At the midpoint of baseline, second bolus fashion (50 μg/kg) and recovery periods, blood was sampled for plasma cGMP. At the end of each period, urine was measured for volume (UV), and samples were stored for electrolytes and cGMP analysis.
Blood for plasma cGMP analysis was collected into EDTA tubes, immediately placed on ice, and centrifuged at […] at 4° C. Plasma was separated and stored at -20° C. until assay. Urine for cGMP determination was heated to >90° C. before storage. Plasma and urine cGMP were determined by a specific RIA as previously described by A. L. Steiner et al., J. Hypertension, 5 (Suppl. 5) 551-553 (1987).

[4] = normal rats, high dose (50 μg/kg) bolus

CC[C@H](C)[C@@H]1NC(=O)[C@H](CCCNC(=N)N)NC(=O)[C@H](CC(=O)O)NC(=O)[C@H](CC(C)C)NC(=O)[C@H](CCCCN)NC(=O)[C@H](CC(C)C)NC(=O)CNC(=O)[C@H](Cc2ccccc2)NC(=O)[C@@H](NC(=O)CNC(=O)[C@H](CCCCN)NC(=O)[C@H](CO)NC(=O)[C@H](CC(C)C)NC(=O)CN)CSSC[C@@H](C(=O)N[C@@H](CC(N)=O)C(=O)N[C@@H](CO)C(=O)N[C@@H](Cc2ccccc2)C(=O)N[C@@H](CCCNC(=N)N)C(=O)N[C@@H](Cc2ccc(O)cc2)C(=O)O)NC(=O)CNC(=O)[C@H](CC(C)C)NC(=O)CNC(=O)[C@H](CO)NC(=O)[C@H](CCSC)NC(=O)[C@H](CO)NC(=O)CNC1=O [VNP, vasonatrin peptide]
vasorelaxing actions (in words) [1]: potent vasorelaxing actions
relaxation of pre-contracted vessels (in words) [2]: able to relax
relaxation ([3]; femoral and saphenous arteries): 90-100%
maximal response, percent change in tension from a contraction to phenylephrine ([3]; femoral artery, with endothelium, phenylephrine 10^-6 M): 91 ± 4%
maximal response, percent change in tension from a contraction to phenylephrine ([3]; femoral artery, without endothelium): 89 ± 5%
maximal response, percent change in tension from a contraction to phenylephrine ([3]; femoral vein, with endothelium): 81 ± 6%
maximal response, percent change in tension from a contraction to phenylephrine ([3]; femoral vein, without endothelium): 86 ± 6%
relaxation ([3]; femoral veins): 90%
order of potency ([3]; pulmonary arteries): ANP=VNP>CNP
maximal response, percent change in tension from a contraction to phenylephrine ([3]; pulmonary artery, with endothelium): 57 ± 5%
maximal response, percent change in tension from a contraction to phenylephrine ([3]; pulmonary artery, without endothelium): 63 ± 7%
maximal response, percent change in tension from a contraction to phenylephrine ([3]; pulmonary vein, with endothelium): 71 ± 2%
maximal response, percent change in tension from a contraction to phenylephrine ([3]; pulmonary vein, without endothelium): 84 ± 3%
order of potency ([3]; pulmonary veins without endothelium): VNP>CNP>ANP
maximal response, percent change in tension from a contraction to phenylephrine ([3]; renal artery, with endothelium): 52 ± 4%
maximal response, percent change in tension from a contraction to phenylephrine ([3]; renal artery, without endothelium): 62 ± 12%
maximal response, percent change in tension from a contraction to phenylephrine ([3]; renal vein, with endothelium): 65 ± 6%
maximal response, percent change in tension from a contraction to phenylephrine ([3]; renal vein, without endothelium): 90 ± 4%
maximal response, percent change in tension from a contraction to phenylephrine ([3]; saphenous artery, with endothelium): 73 ± 3%
maximal response, percent change in tension from a contraction to phenylephrine ([3]; saphenous artery, without endothelium): 81 ± 5%
maximal response, percent change in tension from a contraction to phenylephrine ([3]; saphenous vein, with endothelium): 60 ± 11%
maximal response, percent change in tension from a contraction to phenylephrine ([3]; saphenous vein, without endothelium): 89 ± 6%
relaxation ([3]; saphenous veins): 90%
potency for relaxation (order) ([3]; systemic arteries): VNP>ANP≥CNP
relaxation, % of the contraction to phenylephrine ([3]; systemic arteries (femoral, saphenous and renal)): 50-90%
potency for relaxation (order) ([3]; systemic veins): VNP>CNP>ANP
natriuretic action (in words) (normal rats; in vivo, rat): potent natriuretic effect
change in MAP and RAP (in words) (normal rats; [4]): significant decrease; also recorded: significantly decreased
change in urine flow, sodium excretion, plasma cGMP and urinary cGMP volume (in words) (normal rats; [4]): significantly increased
increase in urine flow, sodium excretion and urinary cGMP volume compared between peptides (normal rats; [4]): significantly higher with VNP than those of CNP, but were less than those of ANP
MAP mean arterial pressure (normal rats; normal rats, iv bolus 5 μg/kg, 15-min period): 93 ± 15 mmHg
HR heart rate (normal rats; normal rats, iv bolus 5 μg/kg): 393 ± 20 beats/min
RAP right atrial pressure (normal rats; normal rats, iv bolus 5 μg/kg): -3.5 ± 0.9 mmHg
UKV urine potassium excretion (normal rats; normal rats, iv bolus 5 μg/kg): 3.3 ± 1.4 µmol/min
UNaV urine sodium excretion (normal rats; normal rats, iv bolus 5 μg/kg): 5.3 ± 1.9 µmol/min
UV urine volume (normal rats; normal rats, iv bolus 5 μg/kg): 32.2 ± 7.5 µL/min
UcGMPV urine cGMP volume (normal rats; normal rats, iv bolus 5 μg/kg): 113 ± 27 pmol/min
HR heart rate (normal rats; normal rats, iv bolus 50 μg/kg): 408 ± 25 beats/min
PcGMP plasma cGMP (normal rats; normal rats, iv bolus 50 μg/kg): 33.3 ± 8.7 pmol/mL
RAP right atrial pressure (normal rats; normal rats, iv bolus 50 μg/kg): -4.3 ± 0.8 mmHg
UKV urine potassium excretion (normal rats; normal rats, iv bolus 50 μg/kg): 11.9 ± 4.7 µmol/min
UNaV urine sodium excretion (normal rats; normal rats, iv bolus 50 μg/kg): 22.5 ± 2.2 µmol/min
UV urine volume (normal rats; normal rats, iv bolus 50 μg/kg): 136 ± 5.5 µL/min
UcGMPV urine cGMP volume (normal rats; normal rats, iv bolus 50 μg/kg): 961 ± 82 pmol/min
MAP mean arterial pressure (normal rats; normal rats, recovery period after 30-min washout): 93 ± 15 mmHg
HR heart rate (normal rats; normal rats, recovery period): 390 ± 20 beats/min
PcGMP plasma cGMP (normal rats; normal rats, recovery period): 4.4 ± 1.4 pmol/mL
RAP right atrial pressure (normal rats; normal rats, recovery period): -2.9 ± 0.9 mmHg
UKV urine potassium excretion (normal rats; normal rats, recovery period): 1.3 ± 0.6 µmol/min
UNaV urine sodium excretion (normal rats; normal rats, recovery period): 0.9 ± 0.3 µmol/min
UV urine volume (normal rats; normal rats, recovery period): 8.4 ± 2.7 µL/min
UcGMPV urine cGMP volume (normal rats; normal rats, recovery period): 88 ± 48 pmol/min
MAP mean arterial pressure (normal rats; normal rats, second iv bolus 50 μg/kg, 15-min period): 79 ± 15 mmHg
